Reference: patent US7247748B2, “Amide compounds and methods of using the same” (SmithKline Corporation, priority 2002, dated 2007)

Columns and labels:
[1] = biological target: T1, human LXRβ ligand binding domain (Homo sapiens, UniProt P55055); test: Ligand Sensing Assay (LiSA) for LXRβ agonist activity (SRC1 peptide recruitment); format: biochemical; conditions: 1 μM; over a background reading of 10000 fluorescence units
T1 construct: made in house; host or cells: E. coli BL21(DE3), vector pRSETa
T1 sequence (P55055 184-460 limits assumed): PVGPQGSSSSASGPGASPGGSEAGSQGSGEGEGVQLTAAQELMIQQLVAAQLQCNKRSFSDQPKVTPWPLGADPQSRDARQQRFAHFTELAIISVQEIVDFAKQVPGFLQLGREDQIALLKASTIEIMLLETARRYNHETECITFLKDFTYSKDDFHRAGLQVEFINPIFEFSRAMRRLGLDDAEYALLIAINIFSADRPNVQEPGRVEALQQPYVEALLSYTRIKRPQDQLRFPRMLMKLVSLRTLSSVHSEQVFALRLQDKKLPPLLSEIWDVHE
T1 sequence (Q15788 676-700 partner limits assumed): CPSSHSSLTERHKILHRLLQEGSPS
From the text: (§1) Test Method 1: Ligand Sensing Assay (LiSA) for LXRβ Agonist Activity
(§2) This assay measures the recruitment of a peptide derived from the coactivator protein, SRC1, to the agonist-bound LXR[…]. Peptides derived from other nuclear receptor cofactors may be similarly prepared and assayed.
To generate the human LXRβ ligand binding domain suitable for LiSA, a modified polyhistidine tag (MKKGHHHHHHG) (SEQ ID No. 1) was fused in frame to the human LXRβ ligand binding domain (amino acids 185–461 of Genbank accession number U07132) and subcloned into the expression vector pRSETa (Invitrogen) under the control of an IPTG inducible T7 promoter. The human LXRβ ligand binding domain was expressed in E. coli strain BL21(DE3). Ten-liter fermentation batches were grown in Rich PO4 media with 0.1 mg/mL Ampicillin at 25° C. for 12 hours, cooled to 9° C. and held at that temperature for 36 hours to a density of OD600=14. […]
Typically 25–50 g of cell paste is resuspended in 250–500 mL TBS, pH 8.0 (25 mM Tris, 150 mM NaCl). […] After washing to baseline absorbance with equilibration buffer, the column is washed with approximately one column volume of TBS pH […] containing 95 mM imidazole. […] After washing to baseline absorbance with the dilution buffer the protein is eluted with a gradient from 50–500 mM NaCl. […]

[2] = biological target: T2, LXRα ligand binding domain (Homo sapiens, UniProt Q13133); test: Ligand Sensing Assay for LXRα agonist activity; format: biochemical; conditions: 1 μM; over a background reading of 10000 fluorescence units
T2 construct: His tag; made in house; host or cells: E. coli BL21(DE3) by analogy with Test Method 1 (inferred)
T2 sequence (Q13133 183-447): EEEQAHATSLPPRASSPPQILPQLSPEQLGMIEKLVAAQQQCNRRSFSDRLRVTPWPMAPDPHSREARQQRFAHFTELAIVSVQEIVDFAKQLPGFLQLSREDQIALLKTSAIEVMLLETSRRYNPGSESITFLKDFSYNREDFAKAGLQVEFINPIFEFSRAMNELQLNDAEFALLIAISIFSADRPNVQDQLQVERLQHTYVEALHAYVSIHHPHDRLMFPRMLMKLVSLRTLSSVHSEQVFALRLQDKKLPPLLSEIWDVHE
T2 sequence (Q15788 676-700 partner): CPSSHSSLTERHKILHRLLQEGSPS
Protocol: as §1, §2
The biotinylated protein was incubated for 20–25 minutes at a concentration of 5 nM in assay buffer (50 mM NaF, 50 mM MOPS-pH 7.5, 0.1 mg/ml FAF-BSA, 0.05 mM CHAPS, 10 mM DTT) with equimolar amounts of streptavidin-AlloPhycoCyanin (APC, Molecular Probes). […]
49 uL of the protein/peptide mixture was added to each well of an assay plate containing 1 ul of test compound serial diluted in 100% DMSO. […] The plates were incubated at room temp 2-hours and then counted on a Wallac Victor V fluorescent plate reader. […]
The assay for LXRα was run according to the procedures of Test Method 1, above using his-tagged LXRα ligand binding domain (amino acids 183–447 of Genbank accession number U22662, with the 14th amino acid corrected to A from R). In this assay 1 μM 24(S),25-epoxycholesterol gave a reading of 20000 fluorescence units over a background reading of 10000 fluorescence units.

Compound C[C@H](CC[C@@H]1OC1(C)C)[C@H]1CC[C@H]2[C@@H]3CC=C4C[C@@H](O)CC[C@]4(C)[C@H]3CC[C@]12C [24(S),25-epoxycholesterol] has a reading [1] of 20000 fluorescence units and a reading [2] of 20000 fluorescence units.
